Assay results: ChEMBL document CHEMBL5614388, “FLT3-PROTACs for combating AML resistance: Analytical overview on chimeric agents developed, challenges, and future perspectives” (Eur J Med Chem, 2024)
One block for each compound: values may come before it.

How the values were obtained:
MV4-11 [1] = test: Antiproliferative activity against human MV4-11 cells assessed as reduction in cell growth incubated for 48 hrs by CCK-8 assay; assay type: functional, cell-based; settings: MV4-11, 48 h
MV4-11 [2] = test: Antiproliferative activity against human MV4-11 cells assessed as reduction in cell viability measured after 48 hrs by CellTiter-Glo assay; assay type: functional, cell-based; settings: MV4-11, 48 h
Kasumi 1 = test: cells; settings: Homo sapiens, Kasumi 1, 72 h
Description: Antiproliferative activity against human Kasumi 1 cells assessed as reduction in cell viability incubated for 72 hrs by Cell-titer glo luminescent assay

MV4-11 [3] = test: Antiproliferative activity against human MV4-11 cells assessed as reduction in cell growth; assay type: functional, cell-based
MV4-11 [4] = test: cells; settings: Homo sapiens
Description: Antiproliferative activity against human MV4-11 cells assessed as reduction in cell viability by WAT-8 reagent based analysis

MOLM-13 = test: Antiproliferative activity against human MOLM-13 cells assessed as reduction in cell viability incubated for 48 hrs by MTS assay; assay type: functional, cell-based; settings: MOLM-13, 48 h
BaF3 [5] = test: Antiproliferative activity against mouse BaF3 cells expressing FLT3-ITD mutant incubated for 48 hrs by CCK8 assay; assay type: functional, cell-based; settings: BaF3, 48 h
BaF3 [6] = test: Antiproliferative activity against mouse BaF3 cells expressing FLT3-ITD D835Y mutant incubated for 48 hrs by CCK8 assay; assay type: functional, cell-based; settings: BaF3, 48 h
BaF3 [7] = test: Antiproliferative activity against mouse BaF3 cells expressing FLT3-ITD F691L mutant incubated for 48 hrs by CCK8 assay; assay type: functional, cell-based; settings: BaF3, 48 h
MV4-11 [8] = test: Antiproliferative activity against human MV4-11 cells assessed as reduction in cell viability incubated for 48 hrs by MTS assay; assay type: functional, cell-based; settings: MV4-11, 48 h

Compound: CCc1nc(C(N)=O)c(Nc2ccc(N3CCN(CN4CCN(c5ccc6c(c5)C(=O)N(C5CCC(=O)NC5=O)C6=O)CC4)CC3)c(OC)c2)nc1NC1CCOCC1 (stereo not given)
IC50 (MV4-11 [1]): 1.66 nM

Compound: CC(C)(C)c1cc(NC(=O)Nc2ccc(-c3cn(CCCCc4cn(CCCCC(=O)Nc5cccc6c5CN(C5CCC(=O)NC5=O)C6=O)nn4)c4ncnc(N)c34)cc2)no1 (stereo not given)
IC50 (MV4-11 [2]): 4.83 nM

Compound: Cc1[nH]c(/C=C2\C(=O)Nc3ccc(F)cc32)c(C)c1C(=O)NCCCCCCNc1cccc2c1C(=O)N(C1CCC(=O)NC1=O)C2=O (stereo not given)
EC50 (Kasumi 1): 21.3 nM

Compound: O=C(CCCCCCC(=O)Nc1cc(-c2ccc3ncn(Cc4c(Cl)cccc4Cl)c3c2)[nH]n1)NO
IC50 (MV4-11 [3]): 92 nM

Second part, the compound after the results:

IC50 (MV4-11 [4]): 0.9 nM
Compound: CCc1nc(C(N)=O)c(Nc2ccc(N3CCC(N4CCN(C)CC4)CC3)c(OC)c2)nc1NC1CCOCC1 [GILTERITINIB]

IC50 (MOLM-13): 0.83 nM
IC50 (BaF3 [5]): 1.8 nM
IC50 (BaF3 [6]): 11.1 nM
IC50 (BaF3 [7]): 14.5 nM
IC50 (MV4-11 [8]): 1.1 nM
Compound: CCCNc1nc(Nc2ccc(C#N)cc2)ncc1C#CCCCNC(=O)[C@H](C)N(C)C(=O)/C=C/CN(C)C [FF-10101]
